Target: JAK2 (Invitrogen) kinase (Homo sapiens (Human), UniProt O60674)
Assay: JAK2 radioactive kinase assay
Format: biochemical
Details: compound at 10 μM; ATP at 10 μM; substrate poly[Glu:Tyr] (4:1)
Procedure: Peptide substrate, [[…]], (20 μM) was prepared in reaction buffer (20 mM Hepes pH 7.5, 10 mM MgCl2, 1 mM EGTA, 0.02% Brij35, 0.02 mg/mL BSA, 0.1 mM […], 2 mM DTT, 1% DMSO. TYK2 (Invitrogen) kinase was added, followed by compounds in DMSO. 33PATP was added to initiate the reaction in ATP at 10 μM. Kinase reaction was incubated for 120 min at room temp and reactions were spotted onto P^81 ion exchange paper (Whatman #3698-915), and then washed extensively in 0.75% phosphoric acid, prior to reading the radioactivity counts. For JAK2 (Invitrogen) kinase assay the peptide substrate poly[Glu:Tyr] (4:1), 0.2 mg/mL was used, in the reaction carried out the same as for TYK2.

Sequence of JAK2 (Invitrogen) kinase (O60674 whole entry): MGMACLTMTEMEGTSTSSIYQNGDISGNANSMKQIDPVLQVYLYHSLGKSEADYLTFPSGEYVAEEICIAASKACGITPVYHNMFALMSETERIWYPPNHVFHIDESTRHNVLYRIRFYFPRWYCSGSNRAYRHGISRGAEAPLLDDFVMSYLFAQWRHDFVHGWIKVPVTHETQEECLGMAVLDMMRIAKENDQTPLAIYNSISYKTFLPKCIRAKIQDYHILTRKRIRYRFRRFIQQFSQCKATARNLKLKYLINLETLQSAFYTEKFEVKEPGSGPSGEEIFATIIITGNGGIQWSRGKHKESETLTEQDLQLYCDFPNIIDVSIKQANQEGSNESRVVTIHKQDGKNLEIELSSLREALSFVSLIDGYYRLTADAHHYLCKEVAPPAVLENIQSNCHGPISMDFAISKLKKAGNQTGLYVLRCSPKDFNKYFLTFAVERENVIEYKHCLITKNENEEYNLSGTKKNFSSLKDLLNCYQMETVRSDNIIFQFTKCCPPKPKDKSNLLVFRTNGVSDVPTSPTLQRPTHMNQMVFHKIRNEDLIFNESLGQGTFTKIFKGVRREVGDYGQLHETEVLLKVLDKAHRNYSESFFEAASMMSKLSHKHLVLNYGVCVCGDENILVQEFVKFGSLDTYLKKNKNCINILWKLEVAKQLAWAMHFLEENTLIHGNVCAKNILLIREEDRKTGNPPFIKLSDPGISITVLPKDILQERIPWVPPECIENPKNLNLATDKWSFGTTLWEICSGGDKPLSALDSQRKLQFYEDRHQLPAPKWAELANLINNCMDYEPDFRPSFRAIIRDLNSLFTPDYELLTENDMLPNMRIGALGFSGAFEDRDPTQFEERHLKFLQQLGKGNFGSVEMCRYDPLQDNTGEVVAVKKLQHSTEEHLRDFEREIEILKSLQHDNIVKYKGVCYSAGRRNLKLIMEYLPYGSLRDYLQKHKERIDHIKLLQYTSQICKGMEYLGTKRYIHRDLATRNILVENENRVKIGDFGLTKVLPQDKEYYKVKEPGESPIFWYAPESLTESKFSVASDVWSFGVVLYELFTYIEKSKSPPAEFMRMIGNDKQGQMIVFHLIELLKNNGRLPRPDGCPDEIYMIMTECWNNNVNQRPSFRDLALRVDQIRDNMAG

| Structure (SMILES) | JAK2 (% Inhibition at 10 μM) |
| --- | --- |
| CNc1cc(Nc2cccn([C@H]3CC[C@H](OC)CC3)c2=O)nc2c(C(=O)N[C@@H]3CC[C@@H](OC)C3)cnn12 [I-69, 5-((1-((1r,4R)-4-Methoxycyclohexyl)-2-oxo-1,2-dihydropyridin-3-yl)amino)-N-((1R,3R)-3-methoxycyclopentyl)-7-(methylamino)pyrazolo[1,5-a]pyrimidine-3-carboxamide] | A (had a percent inhibition at 10 μM lower than 50) |
| CNc1cc(Nc2cccn([C@H]3CC[C@H](OC)CC3)c2=O)nc2c(C(=O)N[C@H]3CC[C@H](OC)C3)cnn12 [I-70, 5-((1-((1r,4S)-4-Methoxycyclohexyl)-2-oxo-1,2-dihydropyridin-3-yl)amino)-N-((1S,3S)-3-methoxycyclopentyl)-7-(methylamino)pyrazolo[1,5-a]pyrimidine-3-carboxamide] | A (had a percent inhibition at 10 μM lower than 50) |

Tested on: IL-12 induced STAT4 phosphorylation mediated by TYK2/JAK2
Assay: IL-12 induced pSTAT4 in human PBMC
Format: cell-based
Details: 1 hr compound, 1.7 ng/mL IL-12 for 30 minutes
How it was run: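 Thawed human PBMC were pre-incubated with compound for 1 hr at 37 °C (0.1% DMSO), then stimulated with 1.7 ng/mL IL-12 for 30 minutes. Phospho-STAT4 and total STAT4 were measured in cell lysates by MSD.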

| Structure (SMILES) | IC50 [µM] |
| --- | --- |
| O=C(NC1CCC1(F)F)c1cnn2c3c(c(Nc4cccn([C@H]5[C@@H]6COC[C@@H]65)c4=O)nc12)OCCN3 (stereo partly shown) [Compound I-768] | < 0.1 |
| CNc1cc(-c2cn([C@@H]3CN(C)C[C@H]3F)c3ncccc23)nc2c(C(=O)NC3CC[C@@H]3OC)cnn12 (stereo partly shown) [Compound I-642] | < 0.1 |
| CNc1cc(-c2cn([C@@H]3CCOC[C@@H]3OC)c3ncccc23)nc2c(C(=O)N[C@H]3CC[C@@H]3OC)cnn12 [Compound I-669] | < 0.1 |
| CNc1cc(Nc2cccn([C@@H]3CCOC[C@@H]3OC)c2=O)nc2c(C(=O)NC3CCC3(F)F)cnn12 (stereo partly shown) [Compound I-336] | < 0.1 |
| CNc1cc(-c2cn([C@H]3C[C@@H](O)C3)c3ncccc23)nc2c(C(=O)NC3CC[C@@H]3F)cnn12 (stereo partly shown) [Compound I-510] | < 0.1 |
| CNc1cc(Nc2cccn([C@@H]3CCC[C@@H]3O)c2=O)nc2c(C(=O)NC3CC[C@@H]3F)cnn12 (stereo partly shown) [Compound I-179] | < 0.1 |
| CNc1cc(-c2cn([C@@H]3CC3(F)F)c3ncccc23)nc2c(C(=O)N[C@H]3CC[C@H]3O)cnn12 [Compound I-549] | < 0.1 |
| CO[C@H]1CC[C@@H]1NC(=O)c1cnn2c(N)cc(-c3cnc4n([C@H]5COC[C@@H]5OC)cccc3-4)nc12 [Compound I-1006] | < 0.1 |
| CNc1cc(-c2cn(C3CCCC3)c3ncccc23)nc2c(C(=O)N[C@@H]3CCC3(F)F)cnn12 [Compound I-681] | < 0.1 |
| CNc1cc(Nc2cccn([C@@H]3CCC[C@@H]3O)c2=O)nc2c(C(=O)N[C@@H]3CC[C@H]3F)cnn12 [Compound I-181] | < 0.1 |
| CNc1cc(Nc2cccn([C@H]3CCC[C@@H](C#N)C3)c2=O)nc2c(C(=O)N[C@@H]3CC[C@H]3OC)cnn12 [Compound I-258] | < 0.1 |
| CNc1cc(-c2cn([C@@H]3COC[C@H]3OC)c3ccccc23)nc2c(C(=O)NC3CC[C@@H]3OC)cnn12 (stereo partly shown) [Compound I-744] | < 0.1 |
| CNc1cc(-c2cnc3n([C@H]4COC[C@@H]4O)cccc2-3)nc2c(C(=O)N[C@@H]3CC[C@H]3OC)cnn12 [Compound I-878] | < 0.1 |
| CNc1cc(-c2cn(C3CN(C)C3)c3ncccc23)nc2c(C(=O)NC3CC[C@@H]3F)cnn12 (stereo partly shown) [Compound I-513] | < 0.1 |
| CNc1cc(Nc2cccn([C@H]3CC[C@H]3O)c2=O)nc2c(C(=O)N[C@@H]3CC[C@H]3F)cnn12 [Compound I-169] | < 0.1 |
| CNc1cc(Nc2cccn([C@H]3CC[C@@H]3O)c2=O)nc2c(C(=O)N[C@@H]3CC[C@@]3(C)OC)cnn12 [Compound I-377] | < 0.1 |
| CNc1ccc(-c2cc(NC)n3ncc(C(=O)N[C@@H]4CC[C@H]4OC)c3n2)n2ccnc12 [Compound I-490] | < 0.1 |
| CNc1cc(Nc2cccn([C@@H]3CCOC[C@@H]3OC)c2=O)nc2c(C(=O)N[C@@H]3CC[C@H]3F)cnn12 [Compound I-217] | < 0.1 |
| CNc1cc(Nc2cccn(C3CCN(CCF)CC3)c2=O)nc2c(C(=O)NC3CC[C@@H]3F)cnn12 (stereo partly shown) [Compound I-236] | < 0.1 |
| CNc1cc(-c2cn([C@H]3[C@@H]4COC[C@@H]43)c3ncccc23)nc2c(C(=O)N[C@H]3CC[C@@H]3OC)cnn12 [I-793, 5-(1-((1R,5S,6r)-3-oxabicyclo[3.1.0]hexan-6-yl)-1H-pyrrolo[2,3-b]pyridin-3-yl)-N-((1S,2S)-2-methoxycyclobutyl)-7-(methylamino)pyrazolo[1,5-a]pyrimidine-3-carboxamide] | < 0.1 |
| CNc1cc(-c2cn([C@@H]3COC[C@@H]3F)c3ncccc23)nc2c(C(=O)N[C@H]3CC[C@H]3O)cnn12 [Compound I-571] | < 0.1 |
| CNc1cc(-c2cn([C@H]3COC[C@@H]3OC)c3ncccc23)nc2c(C(=O)NC3CC[C@@H]3OC)cnn12 (stereo partly shown) [Compound I-633] | < 0.1 |
| CNc1cc(-c2cn([C@@H]3COC[C@H]3OC)c3ncccc23)nc2c(C(=O)N[C@H]3CC[C@@H]3OC)cnn12 [Compound I-637] | < 0.1 |
| CNc1cc(-c2cn(C(C)C)c3nnccc23)nc2c(C(=O)NC3CC[C@@H]3OC)cnn12 (stereo partly shown) [Compound I-993] | < 0.1 |
| CNc1cc(-c2cn(C3CN(C)C3)c3ncccc23)nc2c(C(=O)NC3CCC3(F)F)cnn12 (stereo not shown) [Compound I-676] | < 0.1 |

| Structure (SMILES) | IC50 [µM] |
| --- | --- |
| CNc1cc(-c2cn([C@@H]3COC[C@H]3O)c3ncccc23)nc2c(C(=O)N[C@@H]3CC[C@H]3OC)cnn12 [Compound I-629] | < 0.1 |
| CNc1cc(-c2cn([C@H]3C[C@@H](COC)C3)c3ncccc23)nc2c(C(=O)N[C@@H]3CC[C@@H]3O)cnn12 [Compound I-914] | < 0.1 |
| CNc1cc(Nc2cccn([C@H]3C[C@@H](OC)C3)c2=O)nc2c(C(=O)NC3CCC3(F)F)cnn12 (stereo partly shown) [Compound I-295] | < 0.1 |
| CNc1cc(Nc2cccn([C@H]3C[C@H](OC)C3)c2=O)nc2c(C(=O)NC3CCC3)cnn12 [Compound I-141] | < 0.1 |
| CNc1cc(Nc2cccn(C3CC(F)(F)C3)c2=O)nc2c(C(=O)N[C@@H]3C[C@H]3OC)cnn12 [Compound I-139] | < 0.1 |
| CNc1cc(-c2cnc3n([C@H]4COC[C@@H]4O)cccc2-3)nc2c(C(=O)NC3CCC3(F)F)cnn12 (stereo partly shown) [Compound I-898] | < 0.1 |
| O=C(N[C@H]1CCC1(F)F)c1cnn2c3c(c(-c4cn([C@H]5C[C@H](O)C5)c5ncccc45)nc12)OCCN3 [Compound I-776] | < 0.1 |
| CNc1cc(Nc2cccn([C@H]3C[C@@H]3F)c2=O)nc2c(C(=O)N[C@@H]3C[C@H]3OC)cnn12 [Compound I-133] | < 0.1 |
| CNc1cc(-c2cn(C3CCOCC3)c3ncccc23)nc2c(C(=O)N[C@H]3CCC3(F)F)cnn12 [Compound I-699] | < 0.1 |
| CNc1cc(Nc2cccn([C@@H]3CCC[C@](C)(OC)C3)c2=O)nc2c(C(=O)N[C@@H]3C[C@@H]3F)cnn12 [Compound I-131] | < 0.1 |
| CNc1cc(-c2cn([C@@H]3CCN(C)C3)c3ncccc23)nc2c(C(=O)NC3CCC3(F)F)cnn12 (stereo partly shown) [Compound I-686] | < 0.1 |
| CNc1cc(Nc2cccn(C3COC3)c2=O)nc2c(C(=O)N[C@@H]3C[C@@H]3F)cnn12 [Compound I-125] | < 0.1 |
| CNc1cc(-c2cn([C@H]3COC[C@@H]3OC)c3ccccc23)nc2c(C(=O)N[C@H]3CC[C@H]3O)cnn12 [Compound I-790] | < 0.1 |
| CNc1cc(Nc2cccn([C@H]3CCCC[C@H]3O)c2=O)nc2c(C(=O)NC3CC[C@]3(C)OC)cnn12 (stereo partly shown) [Compound I-423] | < 0.1 |
| CNc1cc(Nc2cccn(C3CCOCC3)c2=O)nc2c(C(=O)N[C@H]3CC[C@]3(C)O)cnn12 [Compound I-349] | < 0.1 |
| CNc1cc(-c2cn([C@@H]3CCOC[C@H]3F)c3ncccc23)nc2c(C(=O)N[C@H]3CC[C@@H]3OC)cnn12 [Compound I-804] | < 0.1 |
| CNc1ccc(-c2cc(NC)n3ncc(C(=O)N[C@H]4CC[C@H]4O)c3n2)n2ccnc12 [Compound I-485] | < 0.1 |
| CNc1cc(Nc2cccn([C@H]3C[C@H](F)C3)c2=O)nc2c(C(=O)N[C@H]3CC[C@H]3O)cnn12 [I-16, 5-((1-((1r,3S)-3-Fluorocyclobutyl)-2-oxo-1,2-dihydropyridin-3-yl)amino)-N-((1S,2R)-2-hydroxycyclobutyl)-7-(methylamino)pyrazolo[1,5-a]pyrimidine-3-carboxamide] | < 0.1 |
| O=C(NC1CC[C@@H]1F)c1cnn2c3c(c(-c4cn(C5COC5)c5ncccc45)nc12)OCCN3 (stereo partly shown) [Compound I-774] | < 0.1 |
| CNc1cc(-c2cn(C3COC3)c3ncccc23)nc2c(C(=O)N[C@H]3CC[C@@H]3O)cnn12 [Compound I-558] | < 0.1 |
| CNc1cc(Nc2cccn([C@@H]3CCC[C@@H](OC)C3)c2=O)nc2c(C(=O)N[C@H]3CC[C@@H]3F)cnn12 [Compound I-228] | < 0.1 |
| CNc1cc(Nc2cccn([C@@H]3C[C@H]3F)c2=O)nc2c(C(=O)N[C@@H]3C[C@H]3OC)cnn12 [Compound I-135] | < 0.1 |
| CNc1cc(Nc2cccn(C3COC3)c2=O)nc2c(C(=O)N[C@@H]3CC[C@@H]3F)cnn12 [Compound I-162] | < 0.1 |
| CNc1cc(Nc2cccn([C@H]3[C@@H]4COC[C@@H]43)c2=O)nc2c(C(=O)N[C@H]3CC[C@H]3F)cnn12 [Compound I-204] | < 0.1 |
| CNc1cc(-c2cnc3n([C@@H]4CN(C)C[C@H]4OC)cccc2-3)nc2c(C(=O)N[C@H]3CC[C@@H]3OC)cnn12 [Compound I-944] | < 0.1 |
